# Experimental data reported in patent US20170253601A1, “Substituted Pyrrolidine Compounds” (EPIZYME, INC., priority 2014, published 2017).
# Biological target: T1, SMYD2 (Homo sapiens, UniProt Q9NRG4)
# T1 construct: Full length SMYD2 (NP 064582.2) was cloned; His6 (N, cleaved yes); FLAG (N); made in house; host or cells: Sf9 insect cells
# Assay: SMYD2 Biochemical Assay (3H-SAM, biotinylated peptide substrate, Flashplate)
# Details: IC50 values are an average of n = 1 to n = 50; read-out: SMYD2 Biochem IC50 (μM)*
# Method in brief: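 Full-length His/FLAG-tagged SMYD2 expressed in Sf9 cells with tag cleaved, 1.5 nM, pre-incubated 30 min at room temperature with compound, then 10 nM 3H-SAM and 60 nM biotinylated peptide added. Buffer 20 mM Bicine pH 7.6, 1 mM TCEP, 0.005% BSG, 0.002% Tween20, 2% DMSO. Stopped with 600 uM cold SAM; 3H-peptide captured on streptavidin Flashplate; IC50 by curve fit.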
# T1 sequence (Q9NRG4 whole entry): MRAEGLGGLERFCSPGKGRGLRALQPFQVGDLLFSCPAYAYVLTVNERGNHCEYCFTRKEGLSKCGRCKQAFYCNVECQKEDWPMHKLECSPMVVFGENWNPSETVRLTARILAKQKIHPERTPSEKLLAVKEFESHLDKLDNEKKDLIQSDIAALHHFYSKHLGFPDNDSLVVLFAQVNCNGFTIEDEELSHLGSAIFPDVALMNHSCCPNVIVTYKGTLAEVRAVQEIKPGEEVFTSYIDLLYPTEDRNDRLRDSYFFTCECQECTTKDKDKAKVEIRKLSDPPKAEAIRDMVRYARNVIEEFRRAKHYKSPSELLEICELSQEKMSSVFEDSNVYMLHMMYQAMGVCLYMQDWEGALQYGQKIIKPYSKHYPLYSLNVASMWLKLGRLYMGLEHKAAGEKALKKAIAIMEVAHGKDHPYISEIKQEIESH
row,Structure (SMILES),IC50 [µM]
1,"C[C@H]1CN(Cc2ccnc3ccccc23)C[C@H]1NC(=O)c1cc(C2CC2)on1 (racemic) [compound 197, (±)-cis-5-cyclopropyl-N-[4-methyl-1-(quinolin-4-ylmethyl)pyrrolidin-3-yl]-1,2-oxazole-3-carboxamide]",> 50
2,"C[C@H]1CN(Cc2ccc(-c3cc(Cl)ccc3Cl)o2)C[C@H]1NC(=O)c1cc(C2CC2)on1 (racemic) [compound 198, (±)-cis-5-cyclopropyl-N-(1-{[5-(2,5-dichloro-phenyl)furan-2-yl]methyl}-4-methyl-pyrrolidin-3-yl)-1,2-oxazole-3-carboxamide]",> 50
3,"CC[C@H]1CN(C(C)C)C[C@@H]1NC(=O)c1cc(C2CC2)on1 (racemic) [compound 199, (±)-trans-5-cyclopropyl-N-[4-ethyl-1-(propan-2-yl)pyrrolidin-3-yl]-1,2-oxazole-3-carboxamide]",25.7
4,"CC(C)N1C[C@@H](C)[C@H](NC(=O)c2cc(C(C)(C)C)on2)C1 (racemic) [compound 200, (±)-trans-5-tert-butyl-N-[4-methyl-1-(propan-2-yl)pyrrolidin-3-yl]-1,2-oxazole-3-carboxamide]",> 50
5,"CC(C)N1C[C@H](C)[C@H](NC(=O)c2cc(C(C)(C)C)on2)C1 (racemic) [compound 201, (±)-cis-5-tert-butyl-N-[4-methyl-1-(propan-2-yl)pyrrolidin-3-yl]-1,2-oxazole-3-carboxamide]",> 50
6,"C[C@H]1CN(CC2CCC2)C[C@H]1NC(=O)c1cc(C2CC2)on1 (racemic) [compound 202, (±)-cis-N-[1-(cyclobutyl-methyl)-4-methyl-pyrrolidin-3-yl]-5-cyclopropyl-1,2-oxazole-3-carboxamide]",1.63
7,"C[C@@H]1CN(Cc2c[nH]c3cc(Cl)ccc23)C[C@H]1NC(=O)c1cc(C2CC2)on1 (racemic) [compound 203, (±)-trans-N-[1-[(6-chloro-1H-indol-3-yl)methyl]-4-methyl-pyrrolidin-3-yl]-5-cyclopropyl-1,2-oxazole-3-carboxamide]",48.3
8,"C[C@@H]1CN(Cc2ccc3ncccc3c2)C[C@H]1NC(=O)c1cc(C2CC2)on1 (racemic) [compound 204, (±)-trans-5-cyclopropyl-N-[4-methyl-1-(quinolin-6-ylmethyl)pyrrolidin-3-yl]-1,2-oxazole-3-carboxamide]",> 50
9,"C[C@H]1CN(CC2CCN(C(=O)OC(C)(C)C)CC2)C[C@H]1NC(=O)c1cc(C2CC2)on1 (racemic) [compound 205, (±)-cis-tert-butyl 4-{[3-(5-cyclopropyl-1,2-oxazole-3-amido)-4-methylpyrrolidin-1-yl]methyl}piperidine-1-carboxylate]",7.69
10,"C[C@H]1CN(Cc2ccc(Cl)cc2)C[C@H]1NC(=O)c1cc(C2CC2)on1 (racemic) [compound 210, (±)-cis-N-[1-[(4-chloro-phenyl)methyl]-4-methylpyrrolidin-3-yl]-5-cyclopropyl-1,2-oxazole-3-carboxamide]",4.32
11,"C[C@H]1CN(Cc2cnc3ncccn23)C[C@H]1NC(=O)c1cc(C2CC2)on1 (racemic) [compound 211, (±)-cis-5-cyclopropyl-N-[1-{imidazo[1,2-a]pyrimidin-3-ylmethyl}-4-methylpyrrolidin-3-yl]-1,2-oxazole-3-carboxamide]",> 50
12,"COc1ccc(CN2C[C@H](C)[C@H](NC(=O)c3cc(C4CC4)on3)C2)c(OC)c1 (racemic) [compound 212, (±)-cis-5-cyclopropyl-N-[1-[(2,4-dimethoxy-phenyl)methyl]-4-methylpyrrolidin-3-yl]-1,2-oxazole-3-carboxamide]",5.23
13,"CC(C)CCN1C[C@H](C)[C@H](NC(=O)c2cc(C3CC3)on2)C1 (racemic) [compound 213, (±)-cis-5-cyclopropyl-N-[4-methyl-1-(3-methylbutyl)pyrrolidin-3-yl]-1,2-oxazole-3-carboxamide]",1.62
14,"Cc1ccc2[nH]cc(CN3C[C@H](C)[C@H](NC(=O)c4cc(C5CC5)on4)C3)c2c1 (racemic) [compound 214, (±)-cis-5-cyclopropyl-N-[4-methyl-1-[(5-methyl-1H-indol-3-yl)methyl]pyrrolidin-3-yl]-1,2-oxazole-3-carboxamide]",29.5
15,"C[C@@H]1CN(CC(F)F)C[C@H]1NC(=O)c1cc(C2CC2)on1 (racemic) [compound 215, (±)-trans-5-cyclopropyl-N-[1-(2,2-difluoro-ethyl)-4-methylpyrrolidin-3-yl]-1,2-oxazole-3-carboxamide]",> 50
16,"C[C@H]1CN(CC(F)F)C[C@H]1NC(=O)c1cc(C2CC2)on1 (racemic) [compound 216, (±)-cis-5-cyclopropyl-N-[1-(2,2-difluoroethyl)-4-methylpyrrolidin-3-yl]-1,2-oxazole-3-carboxamide]",> 50

row,Structure (SMILES),IC50 [µM]
1,"CC(C)N1C[C@H](C)[C@H](NC(=O)c2cc(C3(C)CC3)on2)C1 (racemic) [compound 217, (±)-cis-N-[4-methyl-1-(propan-2-yl)pyrrolidin-3-yl]-5-(1-methyl-cyclopropyl)-1,2-oxazole-3-carboxamide]",22.3
2,"CC(C)[C@@H]1CN(C)C[C@@H]1NC(=O)c1cc(C2CC2)on1 (racemic) [compound 218, (±)-cis-5-cyclopropyl-N-[1-methyl-4-(propan-2-yl)pyrrolidin-3-yl]-1,2-oxazole-3-carboxamide]",37.4
3,"CC(C)[C@H]1CN(C(C)C)C[C@H]1NC(=O)c1cc(C2CC2)on1 (racemic) [compound 219, (±)-cis-N-[1,4-bis(propan-2-yl)pyrrolidin-3-yl]-5-cyclopropyl-1,2-oxazole-3-carboxamide]",> 50
4,"COC(=O)CN1C[C@@H](C)[C@H](NC(=O)c2cc(C3CC3)on2)C1 (racemic) [compound 220, (±)-trans-methyl 2-[3-(5-cyclopropyl-1,2-oxazole-3-amido)-4-methylpyrrolidin-1-yl]acetate]",> 50
5,"COC(=O)CN1C[C@H](C)[C@H](NC(=O)c2cc(C3CC3)on2)C1 (racemic) [compound 221, (±)-cis-methyl 2-[3-(5-cyclopropyl-1,2-oxazole-3-amido)-4-methylpyrrolidin-1-yl]acetate]",> 50
6,"C[C@H]1CN(Cc2ccc3nonc3c2)C[C@H]1NC(=O)c1cc(C2CC2)on1 (racemic) [compound 222, (±)-cis-N-[1-(2,1,3-benzoxadiazol-5-ylmethyl)-4-methyl-pyrrolidin-3-yl]-5-cyclopropyl-1,2-oxazole-3-carboxamide]",41.6
7,"COc1cccc(CN2C[C@H](C)[C@H](NC(=O)c3cc(C4CC4)on3)C2)c1 (racemic) [compound 223, (±)-cis-5-cyclopropyl-N-[1-[(3-methoxy-phenyl)methyl]-4-methylpyrrolidin-3-yl]-1,2-oxazole-3-carboxamide]",4.96
8,"CC(C)c1cc(C(=O)N[C@H]2C[C@@H](CNC(=O)C3CCCCC3)N(C3CC3)C2)no1 (racemic) [compound 224, (±)-cis-N-[5-[(cyclohexyl-formamido)methyl]-1-cyclopropylpyrrolidin-3-yl]-5-(propan-2-yl)-1,2-oxazole-3-carboxamide]",> 50
9,"C[C@@H]1CN(C2CCS(=O)(=O)CC2)C[C@H]1NC(=O)c1cc(C2CC2)on1 (racemic) [compound 225, (±)-trans-5-cyclopropyl-N-[1-(1,1-dioxo-1??- thian-4-yl)-4-methyl-pyrrolidin-3-yl]-1,2-oxazole-3-carboxamide]",> 50
10,"CC(C)c1cc(C(=O)N[C@H]2C[C@@H](CNC(=O)c3ccccc3)N(C3CC3)C2)no1 (racemic) [compound 227, (±)-cis-N-[1-cyclo-propyl-5-[(phenyl-formamido)methyl]pyrrolidin-3-yl]-5-(propan-2-yl)-1,2-oxazole-3-carboxamide]",> 50
11,"COc1ccc(CN2C[C@H](C)[C@H](NC(=O)c3cc(C4CC4)on3)C2)cc1 (racemic) [compound 228, (±)-cis-5-cyclopropyl-N-[1-[(4-methoxy-phenyl)methyl]-4-methylpyrrolidin-3-yl]-1,2-oxazole-3-carboxamide]",3.63
12,"C[C@H]1CN(Cc2ccc(N3CCCC3)cc2)C[C@H]1NC(=O)c1cc(C2CC2)on1 (racemic) [compound 229, (±)-cis-5-cyclopropyl-N-[4-methyl-1-{[4-(pyrrolidin-1-yl)phenyl]methyl}pyrrolidin-3-yl]-1,2-oxazole-3-carboxamide]",3.32
13,"C[C@H]1CN(Cc2ccc(N(C)C)cc2)C[C@H]1NC(=O)c1cc(C2CC2)on1 (racemic) [compound 230, (±)-cis-5-cyclopropyl-N-[1-{[4-(dimethyl-amino)phenyl]methyl}-4-methylpyrrolidin-3-yl]-1,2-oxazole-3-carboxamide]",4.08
14,"C[C@H]1CN(Cc2c(Br)cncc2Br)C[C@H]1NC(=O)c1cc(C2CC2)on1 (racemic) [compound 231, (±)-cis-5-cyclopropyl-N-[1-[(3,5-dibromo-pyridin-4-yl)methyl]-4-methylpyrrolidin-3-yl]-1,2-oxazole-3-carboxamide]",> 50
15,"C[C@H]1CN(Cc2cc(Cl)cnc2Cl)C[C@H]1NC(=O)c1cc(C2CC2)on1 (racemic) [compound 232, (±)-cis-5-cyclopropyl-N-[1-[(2,5-dichloro-pyridin-3-yl)methyl]-4-methylpyrrolidin-3-yl]-1,2-oxazole-3-carboxamide]",36.1
16,"COc1cccc(CN2C[C@H](C)[C@H](NC(=O)c3cc(C4CC4)on3)C2)c1OC (racemic) [compound 233, (±)-cis-5-cyclopropyl-N-[1-[(2,3-dimethoxy-phenyl)methyl]-4-methylpyrrolidin-3-yl]-1,2-oxazole-3-carboxamide]",2.27
